In ChEMBL document CHEMBL1201862, “PubChem BioAssay data set” (2004):
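Method: 48-hour compound exposure of cells in 96-well plates, five concentrations, linear interpolation of endpoints. Here, GI50 denotes the concentration required for 50% inhibition of growth.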 Calls of active or inactive are those of the source. No stated cut-off is given here; in the data, active = GI50 up to about 1.1 µM and inactive = higher.

How the values were obtained:
Assay in all cases: growth of human tumour cells (NCI), 48 h
[1] = tested on: SR
[2] = tested on: HOP-92
[3] = tested on: SN12C
[4] = tested on: K562
[5] = tested on: SK-OV-3
[6] = tested on: M19-MEL
[7] = tested on: LOX IMVI
[8] = tested on: PC-3
[9] = tested on: SF-539
[10] = tested on: HCC 2998
[11] = tested on: Hs-578T
[12] = tested on: NCI-H460
[13] = tested on: MOLT-4
[14] = tested on: MDA-N
[15] = tested on: NCI-H522
[16] = tested on: SNB-19
[17] = tested on: SK-MEL-5
[18] = tested on: OVCAR-8
[19] = tested on: A549
[20] = tested on: OVCAR-4

Measured: GI50

COC1/C=C/OC2(C)Oc3c(C)c(O)c4c(c3C2=O)C(=O)C=C(NC(=O)/C(C)=C\C=C\C(C)C(OC=O)C(C)C(O)C(C)C(OC(C)=O)C1C)C4=O (stereo not drawn)
inactive: [1] 2.77 µM | [2] 13.5 µM | [3] 15.2 µM | [4] 3.61 µM | [5] 28.7 µM | [6] 13.1 µM | [7] 7.5 µM | [8] 10.3 µM | [9] 17.6 µM | [10] 19.6 µM | [11] 15.2 µM | [12] 21.1 µM | [13] 3.01 µM | [14] 15.8 µM | [15] 2.45 µM | [16] 14.5 µM | [17] 15.8 µM | [18] 15.3 µM | [19] 21 µM | [20] 7.4 µM

CC(C)(C)c1cc(Oc2ccc(C#N)c(C#N)c2)cc(C(C)(C)C)c1
inactive: [1] 19.8 µM | [2] > 100 µM | [3] > 100 µM | [4] 83.2 µM | [5] > 100 µM | [6] > 100 µM | [7] 33.4 µM | [9] > 100 µM | [10] > 100 µM | [12] 39.9 µM | [13] > 100 µM | [15] 36.1 µM | [16] > 100 µM | [17] > 100 µM | [18] > 100 µM | [19] > 100 µM | [20] > 100 µM

COc1cccc(-c2cc(C(=O)Nc3ccc(Cl)cc3)nc(N)n2)c1
inactive: [1] 45.1 µM | [2] > 100 µM | [3] 57.7 µM | [4] 40.5 µM | [5] 61 µM | [6] 45.7 µM | [7] 66.1 µM | [9] 40 µM | [10] 87.7 µM | [12] 36.8 µM | [13] 38.7 µM | [15] 32.4 µM | [16] 70.8 µM | [17] 55.6 µM | [18] 98.9 µM | [19] 64.7 µM | [20] > 100 µM

CCNC(=O)C#CC(=O)NCC
inactive: [1] > 41.9 µM | [2] > 100 µM | [3] > 100 µM | [4] > 45.3 µM | [5] > 100 µM | [6] > 100 µM | [7] > 83.9 µM | [9] > 100 µM | [10] > 100 µM | [12] > 100 µM | [13] > 100 µM | [15] > 31.1 µM | [16] > 100 µM | [17] > 100 µM | [18] > 100 µM | [19] > 60.5 µM | [20] > 100 µM

CN(C)CCCSc1c2ccccc2nc2cc(NCC(=O)Nc3ccccc3-c3ccccc3NC(=O)CNc3ccc4c(SCCCN(C)C)c5ccccc5nc4c3)ccc12
inactive: [1] > 100 µM | [2] > 100 µM | [3] > 100 µM | [4] 71.4 µM | [5] > 100 µM | [6] 49.7 µM | [7] > 100 µM | [9] > 100 µM | [10] > 100 µM | [12] > 100 µM | [13] 26.5 µM | [15] > 100 µM | [16] > 100 µM | [17] > 100 µM | [18] > 100 µM | [19] > 100 µM | [20] > 100 µM

O=c1n(CC2CO2)c(=O)n(CC2CO2)c(=O)n1CC1CO1 (stereo not drawn) [TEROXIRONE]
inactive: [1] 1.25 µM | [2] 39.3 µM | [3] 7.83 µM | [4] 22.8 µM | [5] 36.1 µM | [6] 53.7 µM | [7] 14.1 µM | [8] 25 µM | [9] 7.76 µM | [10] 43.7 µM | [11] 33.8 µM | [12] 2.03 µM | [13] 2.35 µM | [14] 20.8 µM | [15] 13.6 µM | [16] 26.2 µM | [18] 33.3 µM | [19] 13.7 µM | [20] 45.2 µM

Clc1ccc(-n2nnc(C3=NCCCN3)c2-c2ccccc2)cc1
inactive: [1] > 100 µM | [2] > 100 µM | [3] > 100 µM | [4] > 100 µM | [5] > 100 µM | [6] > 100 µM | [7] > 100 µM | [9] > 100 µM | [10] > 100 µM | [12] > 100 µM | [13] > 100 µM | [15] > 100 µM | [16] > 100 µM | [17] 75.2 µM | [18] > 100 µM | [19] > 100 µM | [20] > 100 µM

COc1ccc(-c2cc(-c3ccccc3)c(C#N)c(=O)[nH]2)cc1
inactive: [1] > 100 µM | [2] > 100 µM | [3] > 100 µM | [4] > 100 µM | [5] > 100 µM | [6] > 100 µM | [7] > 100 µM | [9] > 100 µM | [10] > 100 µM | [12] > 100 µM | [13] > 100 µM | [15] > 100 µM | [16] > 100 µM | [17] > 100 µM | [18] > 100 µM | [19] > 100 µM | [20] > 100 µM

CCN(CC)CC(C(=O)Nc1c(C)cccc1C)/C(C)=N\NC(=O)C[N+](C)(C)C (stereo not drawn)
inactive: [1] > 100 µM | [2] > 100 µM | [3] > 100 µM | [4] > 100 µM | [5] > 100 µM | [6] > 100 µM | [7] > 100 µM | [9] > 100 µM | [10] > 100 µM | [12] > 100 µM | [13] > 100 µM | [15] > 100 µM | [16] > 100 µM | [17] > 100 µM | [18] > 100 µM | [19] > 100 µM | [20] > 100 µM
